Experimental data from PubChem BioAssay (NCI).
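Briefly, cells in 96-well plates were exposed to five compound concentrations for 48 h, and endpoints were estimated by linear interpolation. GI50 = concentration required for 50% inhibition of growth. At the TGI there is no net growth.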

Key:
Assay in all cases: growth of human tumour cells (NCI), 48 h
[1] = tested on: COLO 205 colon
[2] = tested on: A549 NSCLC
[3] = tested on: SN12C renal
[4] = tested on: A498 renal
[5] = tested on: SF-268 CNS
[6] = tested on: CCRF-CEM leukemia
[7] = tested on: M14 melanoma
[8] = tested on: MDA-MB-231 breast
[9] = tested on: SNB-75 CNS
[10] = tested on: MALME-3M melanoma

| Structure (SMILES) | GI50 [1] [µM] | TGI [1] [µM] | GI50 [2] [µM] | TGI [2] [µM] | GI50 [3] [µM] | TGI [3] [µM] | GI50 [4] [µM] | TGI [4] [µM] | GI50 [5] [µM] | TGI [5] [µM] | GI50 [6] [µM] | TGI [6] [µM] | GI50 [7] [µM] | TGI [7] [µM] | GI50 [8] [µM] | TGI [8] [µM] | GI50 [9] [µM] | TGI [9] [µM] | GI50 [10] [µM] | TGI [10] [µM] |
| --- | --- | --- | --- | --- | --- | --- | --- | --- | --- | --- | --- | --- | --- | --- | --- | --- | --- | --- | --- | --- |
| COc1cc(OC)cc(-c2nc3sccn3c2/C=N/N=C(N)N)c1 | 3.11 | 15.8 | 10 | 19.8 | 7 | 13.6 | 9.86 | 17.3 | 10.2 | 27.2 | 10.9 | 19.5 | 6.96 | 13.4 | 6.91 | 13.6 |  |  |  |  |
| Cc1ccc2[nH]c3c(c2c1)N=c1ccccc1=NO3 | 31.9 | > 100 | > 100 | > 100 | 36.5 | > 100 |  |  | 23.1 | 55.8 | > 100 | > 100 | 48 | > 100 | 35.9 | > 100 | 25.4 | > 100 | 20 | 54.1 |
| CC(C)(CN1CCOCC1)C(=O)/C=C/c1ccc(/C=C/C(=O)C(C)(C)CN2CCOCC2)cc1 |  | 3.01 |  | 7.42 |  | 3.57 |  | 3.6 |  |  |  | 4.77 |  |  |  |  |  | 4.44 |  |  |
| Cc1cc(Br)cc(C)c1NC(=O)C(=O)C(C(=O)c1ccncc1)C1OC(=O)c2ccccc21 (centres undefined) |  | > 100 |  | > 100 |  | > 100 |  | > 100 |  | > 100 |  | > 100 |  | > 100 |  |  |  |  |  | > 100 |
| Cc1c(NC(=O)CCl)c(=O)oc2c(C)c3occc(=O)c3cc12 |  | 40 |  | 35 |  |  |  | 31.7 |  | 25.9 |  | 41.8 |  | 26 |  |  |  | 8.47 |  | 44.4 |
| NCCOCn1cc(Cc2cccc(OCc3ccccc3)c2)c(=O)[nH]c1=O |  | > 100 |  | > 100 |  | > 100 |  |  |  |  |  | > 100 |  | > 100 |  |  |  | > 100 |  |  |
| S=c1nc(C(c2ccccc2)c2ccccc2)[nH][nH]1 |  | > 100 |  | > 100 |  | > 100 |  | > 100 |  | > 100 |  | > 100 |  |  |  |  |  |  |  | > 100 |
| O=c1/c(=C/c2c(O)ccc3ccccc23)sc2nc3ccccc3n12 |  | > 100 |  | > 100 |  | > 100 |  | > 100 |  | > 100 |  | > 100 |  | > 100 |  |  |  | > 100 |  | > 100 |
| CCNc1cc2oc(=O)cc(C(F)(F)F)c2cc1C |  | > 100 |  | > 100 |  | > 100 |  | > 100 |  | > 100 |  |  |  | > 100 |  | > 100 |  | > 100 |  |  |
| O=c1nc(NC(c2ccccc2)(c2ccccc2)c2ccccc2)ccn1CCCl |  | 64.7 |  | > 100 |  | 33 |  | > 100 |  | 34.1 |  |  |  |  |  |  |  | 41.8 |  | 29.2 |
| CSC(=Nc1ccccc1Cl)NC(=O)c1ccc(Br)cc1 |  | > 100 |  | > 100 |  | > 100 |  |  |  | > 100 |  |  |  | > 100 |  |  |  |  |  | > 100 |
| O=C(O)/C=C/c1ccc[c]([Sb](=[O])([OH])[OH])c1 |  |  | > 100 | > 100 | > 100 | > 100 | > 100 | > 100 | > 100 | > 100 |  |  | > 100 | > 100 | > 100 | > 100 |  |  | > 100 | > 100 |
| CCO/C(CCn1[nH]c(=O)c(Cl)c(Cl)c1=O)=N\NC(=O)C(=O)NN |  | > 100 |  | > 100 |  | > 100 |  | > 100 |  | > 100 |  | > 100 |  | > 100 |  |  |  | > 100 |  | > 100 |
| Cc1cc(C)nc(NS(=O)(=O)c2ccc(Nc3c4ccccc4nc4c(C(=O)Nc5ccc(S(=O)(=O)Nc6cc(C)on6)cc5)ccc(Cl)c34)cc2)n1 |  |  |  |  |  | 63 |  | 38.3 |  | > 100 |  | 71 |  | 44 |  |  |  | 84.1 |  | 86.5 |
| O=C1NC(=O)C(=Cc2c3ccccc3cc3ccccc23)C(=O)N1 |  | > 100 |  | > 100 |  | > 100 |  | > 100 |  | > 100 |  | > 100 |  | > 100 |  |  |  |  |  |  |
| CCCCCCCCCCCC[N+](C)(C)Cc1ccccc1 | 1.65 | 3.34 | 2.04 | 5.21 | 2.11 | 5.12 | 8.06 | 24.8 | 2.02 | 4.45 | 1.88 | 5.43 | 1.92 | 4.32 | 1.62 | 3.81 | 1.45 | 3.53 |  |  |
| CCCCCCCN(CCCCCCC)C(=N)c1ccnc2ccccc12 | 1.58 | 3.51 | 1.77 | 3.41 | 1.67 | 3.49 |  |  | 1.48 | 3.03 | 2.14 | 5.27 | 1.33 | 2.76 | 1.62 | 3.58 | 1.2 | 2.77 | 1.62 | 3.37 |
| Cc1ccc(NC(=O)C(=O)C(C(=O)c2ccc3ccccc3c2)C2OC(=O)c3ccccc32)c(C)c1 (centres undefined) |  | 25.2 |  | 62.8 |  | 53.4 |  | 20 |  | 35.7 |  | 78.1 |  | 36.9 |  |  |  | 47.3 |  | 22.4 |
| CC(C)=O.O=C([O-])C(F)(F)F.O=C([O-])C(F)(F)F.O=C([O-])C(F)(F)F.O=C([O-])C(F)(F)F.[Rh+2].[Rh+2] | 96.1 | > 100 | > 100 | > 100 | > 100 | > 100 |  |  | > 100 | > 100 | 35.5 | > 100 | > 100 | > 100 |  |  | 58.6 | > 100 |  |  |
| Cc1c(N)nc([C@H](CC(N)=O)NC[C@H](N)C(N)=O)nc1C(=O)N[C@H](C(=O)N[C@H](C)[C@@H](O)CC(=O)N[C@H](C(=O)NC(O[C@@H]1O[C@@H](C)[C@@H](N)[C@@H](O)[C@H]1O)C(O)c1nc(-c2nc(C(=O)NCCCCN)cs2)cs1)[C@@H](C)O)[C@@H](O[C@@H]1O[C@@H](CO)[C@@H](O)[C@H](O)[C@@H]1O[C@H]1O[C@H](CO)[C@@H](O)[C@H](OC(N)=O)[C@@H]1O)c1c[nH]cn1 (some centres undefined) |  | > 50 |  | > 50 |  | > 50 |  | > 50 |  | > 50 |  | > 50 |  | > 50 |  | > 50 |  | > 50 |  |  |
